{"source": "patent US20140030368A1", "about": "“COMPOSITION FOR PREVENTING OR TREATING A RESPIRATORY DISEASE CONTAINING A MIXED HERBAL EXTRACT OF CNIDIUM OFFICINALE ROOT AND POLYGONI CUSPIDATI ROOT” (WHANIN PHARMACEUTICAL CO., LTD., priority 2011, published 2014)", "assay_type_in_all_cases": "in vivo, mice", "key": {"[1]": {"tested_on": "anti-E. coli-EV-specific IgG2a", "test": "Antigen-specific antibody in serum, E. coli-EV-induced model (ELISA)", "protocol": "(§1) In order to examine whether the extract of the present invention has the ability to produce an antigen-specific antibody in an E. coli-EV-induced asthma/chronic obstructive pulmonary disease model, the E. coli-EV-induced asthma/chronic obstructive pulmonary disease model was prepared by treatment with each of the extract of Example 2 and a comparative drug in the same manner as described in Test Example 8-1. At 48 hours after the final challenge, the mice were anesthetized by intraperitoneal injection with ketamine and xylazine. Then, blood was collected from the heart using a 1 ml syringe, and serum was separated from the blood by centrifugation. Then, anti-E. coli-EV-specific IgG1 and IgG2a antibodies in the serum were measured according to an ELISA assay, and the results of the measurement are shown in Table 15 below."}, "[2]": {"tested_on": "anti-E. coli-EV-specific IgG1", "test": "Antigen-specific antibody in serum, E. coli-EV-induced model (ELISA)", "protocol": "as §1"}, "[3]": {"tested_on": "anti-ovalbumin-specific IgG1 antibody", "test": "Antigen-specific antibody in serum, LPS-induced asthma/COPD model (ELISA)", "protocol": "In order to examine whether the extract of the present invention has the ability to produce an antigen-specific antibody in an LPS-induced asthma/chronic obstructive pulmonary disease model, the LPS-induced asthma/chronic obstructive pulmonary disease model was prepared by treatment with each of the extract of Example 2 and a comparative drug in the same manner as described in Test Example 7-1. At 48 hours after the final challenge, the mice were anesthetized by intraperitoneal injection with ketamine and xylazine. Then, blood was collected from the heart using a 1 ml syringe, and serum was separated from the blood by centrifugation. Then, an anti-ovalbumin-specific IgG1 antibody in the serum was measured according to an ELISA assay, and the results of the measurement are shown in Table 11 below."}, "[4]": {"tested_on": "inflammatory cells in pulmonary bronchoalveolar lavage", "test": "Inflammatory cells in pulmonary bronchoalveolar lavage, LPS-induced asthma/COPD model", "details": "ovalbumin + LPS model", "protocol": "Whether the extract of the present invention has the effect of inhibiting pulmonary bronchial inflammation in an LPS (lipopolysaccharide)-induced asthma/chronic obstructive pulmonary disease model was examined (see You-Sun Kim et al., J. Immunol., 2010, 185, 5648-5655; Jun-Pyo Choi et al., Allergy, 2010, 65, 1322-1330).\nSpecifically, a mixture of 75 μg of ovalbumin and 10 μg of LPS (Sigma) was intranasally administered a total of four times (days 0, 1, 2 and 7) into C57BL/6 male mice (6 weeks old; provided from the Animal Laboratory in Biotech Center, Pohang University of Science & Technology) to sensitize the mice. At 14, 15, 21 and 22 days from the first sensitization date, 50 μg of ovalbumin in PBS was challenged into the nasal cavity to induce asthma and chronic obstructive pulmonary disease. In addition, at 14, 15, 21 and 22 days at which challenge was performed, each of 1.0% CMC, 100, 200 and 400 mg/10 ml/kg of the extract of Example 2, 1 mg/10 ml/Kg of the comparative drug dexamethason and 10 mg/10 ml/kg of the comparative drug montelukast was orally administered twice a day. At 48 hours after the final challenge, the mice were anesthetized by intraperitoneal administration of ketamine and xylazine, and the organ of the mice was exposed and a catheter was inserted therein. Then, the bronchoalveoli were laved with each of 0.8 and 0.7 ml of sterile phosphate buffered saline to obtain a bronchoalveolar lavage. The bronchoalveolar lavage was centrifuged at 4° C. at 1000 rpm for 5 minutes, and the supernatant was removed. 2 ml of 10% FBS-IMDM (fetal bovine serum—Iscove's Modified Dulbecco's Medium) was added to the cells which were then counted. Then, the cells were cytospun, plated on a slide, and Diff-Quick stained. At least 300 inflammatory cells were observed by the staining method and classified into eosinophils, macrophages, neutrophils and lymphocytes, and the cell numbers of the groups treated with dexamethason, montelukast and the extract of Example 2 were compared with the ratios of inflammatory cells in the pulmonary bronchoalveolar lavages of the negative control group and the positive control group, thereby evaluating the inhibitory effects of the test materials against airway inflammation."}, "[5]": {"tested_on": "inflammatory cells in pulmonary bronchoalveolar lavage", "test": "Inflammatory cells in pulmonary bronchoalveolar lavage, E. coli-EV-induced asthma/COPD model", "protocol": "Whether the extract of the present invention has the effect of inhibiting pulmonary bronchial inflammation in an E. coli-EV-induced asthma/chronic obstructive pulmonary disease model was evaluated.\nSpecifically, a mixture of 10 ng of E. coli-EV and PBS was intranasally administered a total of four times (days 0, 1, 2 and 7) into C57BL/6 male mice (6 weeks old; provided from the Animal Laboratory in Biotech Center, Pohang University of Science & Technology) to sensitize the mice. At 14, 15, 21 and 22 days from the first sensitization date, 10 ng of E. coli-EV was challenged into the nasal cavity to induce asthma and chronic obstructive pulmonary disease. In addition, at 14, 15, 21 and 22 days at which the challenge was performed, each of 1.0% CMC, 100, 200 and 400 mg/10 ml/kg of the extract of Example 2, 1 mg/10 ml/kg of the comparative drug dexamethason and 10 mg/10 ml/kg of the comparative drug montelukast was orally administered twice a day. At 48 hours after the final challenge, the mice were anesthetized by intraperitoneal administration of ketamine and xylazine, and the organ of the mice was exposed and a catheter was inserted therein. Then, the bronchoalveoli were laved with each of 0.8 and 0.7 ml of sterile phosphate buffered saline to obtain a bronchoalveolar lavage The bronchoalveolar lavage was centrifuged at 4° C. at 1000 rpm for 5 minutes, and the supernatant was removed. 2 ml of 10% FBS-IMDM (fetal bovine serum—Iscove's Modified Dulbecco's Medium) was added to the cells which were then counted. Then, the cells were cytospun, plated on a slide, and Diff-Quick stained. At least 300 inflammatory cells were observed by the staining method and classified into eosinophils, macrophages, neutrophils and lymphocytes, and the cell numbers of the groups treated with dexamethason, montelukast and the extract of Example 2 were compared with the ratios of inflammatory cells in the pulmonary bronchoalveolar lavages of the negative control group and the positive control group, thereby evaluating the inhibitory effects of the test materials against airway inflammation."}, "[6]": {"tested_on": "MCP-1 (monocyte chemoattractant protein-1)", "test": "Inflammatory mediator in bronchoalveolar lavage, E. coli-EV-induced model (ELISA)", "protocol": "(§2) The expression patterns of the inflammatory mediators MCP-1 (monocyte chemoattractant protein-1) and MIP-1α (macrophage inflammatory protein-1α) in the bronchoalveolar lavage obtained in Test Example 8-1 were measured using an ELISA assay, and the results of the measurement are shown in Table 14 below."}, "[7]": {"tested_on": "MIP-1α (macrophage inflammatory protein-1α)", "test": "Inflammatory mediator in bronchoalveolar lavage, E. coli-EV-induced model (ELISA)", "protocol": "as §2"}}}
{"compound": "C[C@@H]1C[C@H]2[C@@H]3CCC4=CC(=O)C=C[C@]4(C)[C@@]3(F)[C@@H](O)C[C@]2(C)[C@@]1(O)C(=O)CO", "note": "[Dexamethason, dexamethason]", "values": [{"measurement": "Inhibition rate(%) IgG2a", "setting": "[1]; 1 mg/kg b.i.d.", "result": 55.7, "unit": "%"}, {"measurement": "Inhibition rate(%) IgG1", "setting": "[2]; 1 mg/kg b.i.d.", "result": 93.8, "unit": "%"}, {"measurement": "IGg1 in serum", "setting": "[3]; 1 mg/kg b.i.d.", "result": 28.94}, {"measurement": "IGg1 in serum, Inhibition rate (%)", "setting": "[3]; 1 mg/kg b.i.d.", "result": 57.35, "unit": "%"}, {"measurement": "Inhibition rate(%) Eosinophils", "setting": "[4]; 1 mg/kg b.i.d.", "result": 51.1, "unit": "%"}, {"measurement": "Inhibition rate(%) Macrophages", "setting": "[4]; 1 mg/kg b.i.d.", "result": 27.3, "unit": "%"}, {"measurement": "Inhibition rate(%) Total cells", "setting": "[4]; 1 mg/kg b.i.d.", "result": 40.4, "unit": "%"}, {"measurement": "Inhibition rate(%) Eosinophils", "setting": "[5]; 1 mg/kg b.i.d.", "result": 1.1, "unit": "%"}, {"measurement": "Inhibition rate(%) Macrophages", "setting": "[5]; 1 mg/kg b.i.d.", "result": 24.7, "unit": "%"}, {"measurement": "Inhibition rate(%) Total cells", "setting": "[5]; 1 mg/kg b.i.d.", "result": 9.2, "unit": "%"}, {"measurement": "Inhibition rate(%) MCP-1", "setting": "[6]; 1 mg/kg b.i.d.", "result": 1.2, "unit": "%"}, {"measurement": "Inhibition rate(%) MIP-1α", "setting": "[7]; 1 mg/kg b.i.d.", "result": 8.3, "unit": "%"}]}
{"compound": "CC(C)(O)c1ccccc1CC[C@@H](SCC1(CC(=O)O)CC1)c1cccc(/C=C/c2ccc3ccc(Cl)cc3n2)c1", "note": "[montelukast]", "values": [{"measurement": "Inhibition rate(%) IgG2a", "setting": "[1]; 10 mg/kg b.i.d.", "result": 27.2, "unit": "%"}, {"measurement": "Inhibition rate(%) IgG1", "setting": "[2]; 10 mg/kg b.i.d.", "result": 59.7, "unit": "%"}, {"measurement": "IGg1 in serum", "setting": "[3]; 10 mg/kg b.i.d.", "result": 44.84}, {"measurement": "IGg1 in serum, Inhibition rate (%)", "setting": "[3]; 10 mg/kg b.i.d.", "result": 33.91, "unit": "%"}, {"measurement": "Inhibition rate(%) Eosinophils", "setting": "[4]; 10 mg/kg b.i.d.", "result": 13.3, "unit": "%"}, {"measurement": "Inhibition rate(%) Macrophages", "setting": "[4]; 10 mg/kg b.i.d.", "result": 8.2, "unit": "%"}, {"measurement": "Inhibition rate(%) Total cells", "setting": "[4]; 10 mg/kg b.i.d.", "result": 10.6, "unit": "%"}, {"measurement": "Inhibition rate(%) Eosinophils", "setting": "[5]; 10 mg/kg b.i.d.", "result": 15.4, "unit": "%"}, {"measurement": "Inhibition rate(%) Macrophages", "setting": "[5]; 10 mg/kg b.i.d.", "result": 1.3, "unit": "%"}, {"measurement": "Inhibition rate(%) Total cells", "setting": "[5]; 10 mg/kg b.i.d.", "result": 1.2, "unit": "%"}, {"measurement": "Inhibition rate(%) MCP-1", "setting": "[6]; 10 mg/kg b.i.d.", "result": 11.5, "unit": "%"}, {"measurement": "Inhibition rate(%) MIP-1α", "setting": "[7]; 10 mg/kg b.i.d.", "result": 4.2, "unit": "%"}]}
